Data reported in ChEMBL document CHEMBL1201862, “PubChem BioAssay data set” (2004).
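In this assay, cells in 96-well plates receive the compound at five concentrations for 48 hours. Endpoints are linearly interpolated between the surrounding concentrations. At the GI50, growth is halved.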 Calls of active or inactive are those of the source. Rule as the data show it: active = GI50 up to about 1.1 µM and inactive = higher.

Columns and labels:
Assay in all cases: NCI anticancer screen, dose series, 48 h
[1] = test system: A549
[2] = test system: NCI-H460
[3] = test system: ACHN
[4] = test system: SF-295
[5] = test system: K562
[6] = test system: HOP-92
[7] = test system: CAKI-1
[8] = test system: SK-OV-3
[9] = test system: SNB-75
[10] = test system: MDA-N
[11] = test system: RXF 393
[12] = test system: 786-0
[13] = test system: TK-10
[14] = test system: A498
[15] = test system: CCRF-CEM
[16] = test system: MDA-MB-435
[17] = test system: NCI-H522
[18] = test system: DU-145
[19] = test system: RPMI-8226
[20] = test system: HCC 2998

SMILES | GI50 [1] | GI50 [2] | GI50 [3] | GI50 [4] | GI50 [5] | GI50 [6] | GI50 [7] | GI50 [8] | GI50 [9] | GI50 [10] | GI50 [11] | GI50 [12] | GI50 [13] | GI50 [14] | GI50 [15] | GI50 [16] | GI50 [17] | GI50 [18] | GI50 [19] | GI50 [20]
CC(C)N(C(=O)c1ccc(NCc2cc(O)ccc2O)cc1)C(C)C | 26.2 µM (inactive) | 18.2 µM (inactive) | 13.8 µM (inactive) | 21.1 µM (inactive) | 20.4 µM (inactive) | 11.9 µM (inactive) | 14.2 µM (inactive) | 35.3 µM (inactive) | 24.8 µM (inactive) | 17.7 µM (inactive) | 13.1 µM (inactive) | 13 µM (inactive) | 15.6 µM (inactive) | 18 µM (inactive) | 3.08 µM (inactive) | 17.1 µM (inactive) | 1.59 µM (inactive) | 16.4 µM (inactive) | – | –
O=C1C=C(NCC(c2ccccc2)c2ccccc2)C(=O)c2ncccc21 | 0.668 µM (active) | 0.518 µM (active) | 2.28 µM (inactive) | 1.74 µM (inactive) | 1.38 µM (inactive) | 2.26 µM (inactive) | 2.4 µM (inactive) | 7.33 µM (inactive) | 0.507 µM (active) | 1.6 µM (inactive) | – | 2.88 µM (inactive) | 17 µM (inactive) | 2.24 µM (inactive) | 2.64 µM (inactive) | 1.35 µM (inactive) | 1.34 µM (inactive) | 1.96 µM (inactive) | 1.72 µM (inactive) | 0.785 µM (active)
C=C(C)C1=CCC[C@]2(C1)N=C(OC)[C@@H](C(C)C)N=C2OC | > 100 µM (inactive) | > 100 µM (inactive) | > 100 µM (inactive) | > 100 µM (inactive) | – | 56 µM (inactive) | > 100 µM (inactive) | > 100 µM (inactive) | 51.2 µM (inactive) | 32.2 µM (inactive) | – | > 100 µM (inactive) | > 100 µM (inactive) | > 100 µM (inactive) | 34.3 µM (inactive) | 40.1 µM (inactive) | 31.3 µM (inactive) | > 100 µM (inactive) | 16.3 µM (inactive) | > 100 µM (inactive)
Nc1cccc(/C=C/C(=O)N2CCN(CCOC(c3ccccc3)c3ccccc3)CC2)c1 | 16.6 µM (inactive) | 16.9 µM (inactive) | 16.1 µM (inactive) | 17.3 µM (inactive) | 9.98 µM (inactive) | 12.9 µM (inactive) | 18.6 µM (inactive) | 16.5 µM (inactive) | 13.1 µM (inactive) | 17.8 µM (inactive) | 15.3 µM (inactive) | 16.7 µM (inactive) | 15 µM (inactive) | 17.5 µM (inactive) | 10 µM (inactive) | 16.3 µM (inactive) | 15 µM (inactive) | 15.1 µM (inactive) | 10.5 µM (inactive) | –
CC(=O)Nc1ccc(NNc2cc(=O)n(C)c(=O)[nH]2)cc1 | 19 µM (inactive) | 17.1 µM (inactive) | 2.91 µM (inactive) | 15.8 µM (inactive) | 33.3 µM (inactive) | 2 µM (inactive) | – | – | – | 11 µM (inactive) | – | 2.71 µM (inactive) | 23.2 µM (inactive) | 23.2 µM (inactive) | > 10 µM (inactive) | 10.3 µM (inactive) | – | 16 µM (inactive) | 2.84 µM (inactive) | 11.4 µM (inactive)
[N-]=[N+]=NC1OC(=O)C(Cl)=C1N=P(c1ccccc1)(c1ccccc1)c1ccccc1 (configuration not stated) | > 10 µM (inactive) | > 10 µM (inactive) | 8.63 µM (inactive) | 7.24 µM (inactive) | 3.59 µM (inactive) | – | > 10 µM (inactive) | > 10 µM (inactive) | 6.84 µM (inactive) | 9.27 µM (inactive) | > 10 µM (inactive) | > 10 µM (inactive) | > 10 µM (inactive) | > 10 µM (inactive) | 4.3 µM (inactive) | 8.17 µM (inactive) | 6.67 µM (inactive) | > 10 µM (inactive) | 3.34 µM (inactive) | > 10 µM (inactive)
Cn1c(=O)c2nc3nnc(C#N)c(N)n3c2n(C)c1=O | > 100 µM (inactive) | > 100 µM (inactive) | 44.4 µM (inactive) | > 100 µM (inactive) | > 100 µM (inactive) | 31.8 µM (inactive) | 51.8 µM (inactive) | > 100 µM (inactive) | – | > 100 µM (inactive) | 79.4 µM (inactive) | > 100 µM (inactive) | > 100 µM (inactive) | 51.4 µM (inactive) | 67.8 µM (inactive) | > 100 µM (inactive) | > 100 µM (inactive) | 72.4 µM (inactive) | > 100 µM (inactive) | > 100 µM (inactive)
O=C(Nc1ccc(Cl)cc1)NS(=O)(=O)c1ccc2c(c1)CCC2 [SULOFENUR] | 32.7 µM (inactive) | 24.4 µM (inactive) | 29.4 µM (inactive) | 46.7 µM (inactive) | 10.2 µM (inactive) | – | 42.9 µM (inactive) | 25.8 µM (inactive) | > 55.6 µM (inactive) | 28 µM (inactive) | 27.9 µM (inactive) | 35.3 µM (inactive) | 40.5 µM (inactive) | 45 µM (inactive) | 29.9 µM (inactive) | 17.6 µM (inactive) | 27.9 µM (inactive) | 24 µM (inactive) | 24.4 µM (inactive) | 31.6 µM (inactive)
Cc1cccnc1N/C=C1\C(=O)NC(=O)N(C)C1=O | > 100 µM (inactive) | > 100 µM (inactive) | > 100 µM (inactive) | > 100 µM (inactive) | – | 65.6 µM (inactive) | > 100 µM (inactive) | > 100 µM (inactive) | 35.9 µM (inactive) | > 100 µM (inactive) | – | > 100 µM (inactive) | > 100 µM (inactive) | 12.3 µM (inactive) | – | > 100 µM (inactive) | 1.69 µM (inactive) | > 100 µM (inactive) | – | –
O=C1CN(/N=C/c2ccc(-c3ccc(F)cc3)o2)C(=O)N1 | 52.2 µM (inactive) | 45.2 µM (inactive) | > 100 µM (inactive) | 55.7 µM (inactive) | 35 µM (inactive) | 0.394 µM (active) | 58.6 µM (inactive) | > 100 µM (inactive) | – | 16.9 µM (inactive) | > 100 µM (inactive) | > 100 µM (inactive) | 69.2 µM (inactive) | 25.2 µM (inactive) | > 100 µM (inactive) | 18.5 µM (inactive) | 21.1 µM (inactive) | > 100 µM (inactive) | 28 µM (inactive) | 80.9 µM (inactive)
Cc1cn(C2OC(CO[Si](C)(C)C(C)(C)C)/C(=C\C#N)C2O[Si](C)(C)C(C)(C)C)c(=O)[nH]c1=O (configuration not stated) | 41.6 µM (inactive) | 8.83 µM (inactive) | 83 µM (inactive) | 6.67 µM (inactive) | 1.93 µM (inactive) | > 100 µM (inactive) | > 100 µM (inactive) | > 100 µM (inactive) | 56.9 µM (inactive) | > 100 µM (inactive) | 7.53 µM (inactive) | 58.1 µM (inactive) | > 100 µM (inactive) | > 100 µM (inactive) | 9.51 µM (inactive) | 56.1 µM (inactive) | – | 81.8 µM (inactive) | > 100 µM (inactive) | –
O=C(N/C(=C\NC1=NCCS1)C(=O)N1CSC[C@@H]1C(=O)O)c1ccccc1 | > 100 µM (inactive) | > 100 µM (inactive) | > 100 µM (inactive) | > 100 µM (inactive) | > 100 µM (inactive) | > 100 µM (inactive) | > 100 µM (inactive) | > 100 µM (inactive) | > 100 µM (inactive) | > 100 µM (inactive) | > 100 µM (inactive) | 77.8 µM (inactive) | > 100 µM (inactive) | > 100 µM (inactive) | > 100 µM (inactive) | > 100 µM (inactive) | – | > 100 µM (inactive) | > 100 µM (inactive) | > 100 µM (inactive)
Cn1cc(NC(=O)c2cc(NC(=O)CNC(=N)N)cn2C)cc1C(=O)NCCC(=N)N [NETROPSIN CHLORIDE] | > 100 µM (inactive) | > 100 µM (inactive) | > 100 µM (inactive) | > 100 µM (inactive) | > 100 µM (inactive) | > 100 µM (inactive) | > 100 µM (inactive) | > 100 µM (inactive) | – | > 100 µM (inactive) | > 100 µM (inactive) | > 100 µM (inactive) | > 100 µM (inactive) | > 100 µM (inactive) | > 100 µM (inactive) | > 100 µM (inactive) | > 100 µM (inactive) | > 100 µM (inactive) | > 100 µM (inactive) | > 100 µM (inactive)
CCOC(=O)/C(C(=O)Nc1cccc(Cl)c1)=C(/N)N1CCOCC1 | > 100 µM (inactive) | > 100 µM (inactive) | > 100 µM (inactive) | > 100 µM (inactive) | > 100 µM (inactive) | – | > 100 µM (inactive) | > 100 µM (inactive) | > 100 µM (inactive) | > 100 µM (inactive) | > 100 µM (inactive) | > 100 µM (inactive) | > 100 µM (inactive) | > 100 µM (inactive) | > 100 µM (inactive) | > 100 µM (inactive) | > 100 µM (inactive) | > 100 µM (inactive) | > 100 µM (inactive) | > 100 µM (inactive)
Cc1ccc(C2SC(=N)Nc3c2c(C)nn3C(=O)c2ccccc2O)cc1 (configuration not stated) | 3.16 µM (inactive) | 7.57 µM (inactive) | 6.03 µM (inactive) | – | 4.35 µM (inactive) | 0.475 µM (active) | > 10 µM (inactive) | 3.3 µM (inactive) | 2.54 µM (inactive) | 7.14 µM (inactive) | > 10 µM (inactive) | > 10 µM (inactive) | > 10 µM (inactive) | 3.59 µM (inactive) | > 10 µM (inactive) | 3.78 µM (inactive) | – | > 10 µM (inactive) | > 10 µM (inactive) | –
